{"source": "patent US8440617B2", "about": "“Hyperbaric treatment in wound healing” (The Trustees of the University of Pennsylvania, priority 2007, dated 2013)", "assay_type_in_all_cases": "in vivo, mouse", "key": {"[1]": {"system": "circulating EPCs (CXCR4+/VEGFR2+, Tie2+/VEGFR2+)", "assay": "Circulating EPCs by flow cytometry in STZ-diabetic mice", "settings": "diabetic mice treated with insulin", "experimental": "(§1) Tie2-GFP, wild-type or chimeric FVB mice at 6-12 wk of age were treated with STZ (Sigma-Aldrich) to induce diabetes. Mice were rendered diabetic by i.p. administration of 60 mg/kg STZ in 50 mM sodium citrate, pH 4.5, daily for 5 d. Control mice were treated with daily injections of citrate buffer. Serum glucose was measured from the mouse tail vein using a glucometer. Once serum glucose reached 250 mg/dL, mice were followed with daily measurements for 1 wk prior to use in experiments. Serum glucose levels in STZ mice averaged 461 mg/dL with a range of 372-520 mg/dL, while control mice serum glucose mean level was 120 mg/dL with a range of 94-135 mg/dL. Wounds were induced on the ventral surface of the mouse thigh using a 4 mm punch biopsy. Full-thickness skin was removed, exposing the underlying muscle.\n(§2) For HBO treatment, mice were placed in an animal hyperbaric chamber (Reneau Corp.) and subjected to 100% oxygen at 2.4 atmospheres absolute (ATA) for 90 min (Davis Wound Healing Protocol). To measure continuous, real-time BM NO levels, NO microelectrodes was inserted into the femoral marrow cavity as previously described. An osteotomy was created on the patellar surface of the murine femur using a 25 G beveled needle, allowing the electrode to be lowered into the marrow space when the animal was placed in the hyperbaric chamber. In some mice, pretreatment with L-NAME (40 mg/kg i.p.) (Sigma-Aldrich) was given 2 h prior to exposure to HBO.\nMobilization of EPCs into circulation was studied using flow cytometry as previously described. Cells isolated from mice were incubated with various Abs (BD Biosciences). Isotype matched mouse immunoglobulins served as controls. One million viable cells were analyzed per sample using an LSR2 multicolor flow cytometer (BD Biosciences). Data was analyzed using FlowJo software (Treestar, Inc.).\nPhysiologically, increased levels of BM NO result in activation of MMP-9 and conversion of kit ligand to its soluble form, ultimately generating EPC release into circulation. To study the effects of the hyperoxia-induced rise in NO levels in the marrow cavity on mobilization of EPCs into circulation, peripheral blood from diabetic mice was analyzed for EPCs using flow cytometry. A determination of whether hyperoxia, induced by HBO, increases the number of circulating EPCs in the peripheral blood of diabetic mice was made. Specifically, peripheral blood of diabetic mice was examined 18 h after a single HBO treatment. After excluding dead DAPI^+labeled cells, candidate lymphocytes, identified by their typical appearance on forward and side scatter, were gated and CD45^+/CD3^+cell populations were excluded. […] Therefore, several marker combinations were used to quantitate circulating EPCs. […]"}, "[2]": {"system": "NO synthesis in bone marrow (NOS)", "assay": "Real-time bone marrow NO measurement with NO microelectrode during HBO", "settings": "diabetic mice, insulin 6 U/kg twice/d i.p.", "experimental": "as §2\nIn early studies, it was hypothesized that HBO2 augments stem cell mobilization because it stimulates •NO synthesis in the bone marrow, as •NO is known to play a central role with stem cell release from bone marrow. […] Mice were placed in a hyperbaric chamber where, while breathing air, baseline measurements were obtained. The chamber was then flushed with 100% O2 and compressed to 2.4 ATA O2.\nPhysiologically, the NO-mediated EPC release into circulation occurs in response to tissue-level hypoxia, although this compensatory response is inadequate in the setting of diabetes and results in severe defects in neovascularization and wound healing. […] Therefore, it was sought to utilize HBO as a tool to augment EPC release into circulation and further study both EPC mobilization and wound-homing mechanisms in the presence of diabetes. The goal was to determine whether hyperoxia stimulates NO production in the BM of diabetic mice via a NOS-mediated pathway and whether this pathway is impaired in diabetes. To test this hypothesis, Nafion polymer—coated NO microsensors were inserted into the femur BM space of both STZ induced diabetic and nondiabetic mice to measure real-time NO levels within the BM prior to and is during HBO-induced hyperoxia. […] It was speculated, that this was likely due to a compensatory effect from other NOS isoforms, and therefore the level of both iNOS and nNOS was examined in diabetic mice. […] However, no observation was made of any changes in the phosphorylation of these NOS isoforms."}, "[3]": {"system": "diabetic cutaneous wounds", "assay": "Peripheral wound healing (wound closure) in diabetic mice", "experimental": "as §1\nInitial wound surface area was recorded and wounds were then followed serially with daily digital photographs using an Olympus digital camera. Photographs contained an internal scale to allow for standard calibration of measurements. Wound area was quantified using ImageJ software. Wound area was expressed as the percentage of original wound size. Wounds were followed for 6 d and mice were sacrificed at the conclusion of the experiment.\nEPCs play a key role in vasculogenesis and cutaneous tissue repair. It was hypothesized that increased numbers of EPCs in circulation, along with enhanced EPC homing to wounds, results in improved wound healing in diabetes. Diabetic wound closure rates were studied, in response to treatment with HBO and SDF-1α alone and in combination. Wounded diabetic mice underwent daily wound injections with SDF-1α, PBS, HBO, or SDF-1α+HBO treatments. […] This healing response was greater than the response to either treatment modality alone. In addition, histochemical analysis was conducted to examine blood vessel density (VEGFR2 staining), cellularity and stromagenesis (H&E staining), and extracellular constitution (trichrome staining) in wound tissues. […]"}}, "note": "“Also recorded” adds a separate entry of the source.", "data": [{"substance": "insulin: human insulin (NPH), 6 U/kg twice/d i.p.", "values": [{"measurement": "EPC mobilization", "setting": "[1]", "result": "little effect; also recorded: does not increase"}, {"measurement": "reversal of impaired BM NO production", "setting": "[2]", "result": "little effect"}, {"measurement": "reversal of impaired BM NO production", "setting": "[2]; listed as Insulin", "result": "did not reverse"}, {"measurement": "wound healing rate, insulin combined with HBO+SDF-1α therapy", "setting": "[3]; diabetic mice", "result": "did not further accelerate"}, {"measurement": "wound healing rates", "setting": "[3]; diabetic mice treated with insulin 6 U/kg twice/d i.p.", "result": "failed to improve; also recorded: Little effect"}]}]}
